Laboratory results published in article PMC12670405, “Second-Generation AURKA-Targeting PROTACs: Structural Optimization toward in Vivo Degradation in Neuroblastoma” (Journal of Medicinal Chemistry, 2025).

Experiments:
[1] = test system: SJNB-1; test: IncuCyte live-cell imaging, antiproliferative effect; assay type: cell-based; details: Homo sapiens, 72 h, read-out: Cell GI50 72h
Protocol: The use of human cell lines in this study was approved by the Ethics Committee of Ghent University Hospital (EC/029-2022/sds). Human neuroblastoma cell lines NGP, IMR-32, SJNB-8, SK-N-BE(2)-C, SJNB-1, SK-N-SH and SK-N-AS, as well as benign immortalized cell lines RPE and HEK293T were either bought commercially or obtained through research laboratories. The neuroblastoma cell lines and HEK293T were cultured in RPMI 1640 medium (Gibco, #52400041) supplemented with 10% fetal bovine serum (Sigma-Aldrich, #F0804), 2 mM L-glutamine (Gibco, #11548876), and 100 IU/mL penicillin/streptomycin (Gibco, #11548876). RPE cells were cultured in DMEM-F12 (Gibco, #11594426), supplemented with 10% fetal bovine serum, 2 mM L-glutamine and 100 IU/mL penicillin/streptomycin. Screening for mycoplasma contamination occurred routinely on the cells. […]
Neuroblastoma cells were seeded in 384-well plates at different densities ranging from 1200 to 5000 cells/well and allowed to adhere overnight. […] Compound treatment was performed using the D300e Digital Dispenser (Tecan) in duplicate or triplicate and cell confluency was monitored over time using the IncuCyte Live-cell imaging system (Sartorius). […] Mean normalized confluences were calculated from 3 individual experiments. […]

[2] = test system: caspase 3/7 in NGP; test: Caspase-Glo 3/7 assay; assay type: cell-based, human; details: 48 h, 1 μM tariquidar
Protocol: (§1) Neuroblastoma cells were seeded in 384-well plates at different densities ranging from 1200 to 5000 cells/well and allowed to adhere overnight. Compound treatment was performed using the D300e Digital Dispenser (Tecan) in duplicate. At the 48 h time point, a Caspase-Glo 3/7 Assay (Promega, #G8090) was performed following the manufacturer’s protocol, but adapted to add a 1:2 ratio of Caspase-Glo 3/7 reagent volume to sample volume. The readout was performed using the GloMax Discover Microplate Reader (Promega). Caspase 3/7 luminescence values were normalized to that of the DMSO negative control, and mean relative caspase 3/7 luminescence values were calculated from 3 individual experiments.

[3] = test system: caspase 3/7 in SK-N-BE(2)-C; test: Caspase-Glo 3/7 assay; assay type: cell-based, human; details: 48 h, 1 μM tariquidar
Protocol: as §1

[4] = test system: SP2; test: LC-MS/MS proteome profiling; assay type: cell-based, Homo sapiens; details: SK5527 vs DMSO (24h)
Protocol: (§2) Analysis of the mass spectrometry data was performed in DiaNN (version 1.9). Precursor false discovery rate was set at 1%. Spectra were searched against the Homo sapiens protein sequences in the Uniprot database (database release version of 2024_01), containing 20,597 sequences (www.uniprot.org) and the imbedded protein contaminant list. Enzyme specificity was set as C-terminal to arginine and lysine, also allowing cleavage at proline bonds with a maximum of 2 missed cleavages. Variable modifications were set to oxidation of methionine residues and acetylation of protein N-termini while fixed modification was set to carbamidomethylation of cystein residues. Matching between runs was enabled. Mainly default settings were used, except for the addition of a 400-900 m/z precursor mass range filter and MS1 and MS2 mass tolerance was set to 10 and 20 ppm respectively.
(§3) Further data analysis of the results was performed with an in-house script in the R programming language.
(§4) Protein expression matrices were prepared as follows: the DIA-NN main report output table was filtered at a precursor and protein library q-value cut-off of 1 % and only proteins identified by at least one proteotypic peptide were retained. After pivoting into a wide format, iBAQ intensity columns were then added to the matrix using the DIAgui’s R package get_IBAQ function. PG MaxLFQ intensities were log2 transformed and replicate samples were grouped. Proteins with less than 3 valid values in at least one group were removed and missing values were imputed from a normal distribution centered around the detection limit (package DEP) leading to a list of 7,759 quantified proteins in the experiment, used for further data analysis. To compare protein abundance […]
(§5) 24h MK-5108 vs 24h DMSO sample groups), statistical testing for differences between two group means was performed, using the package limma. Statistical significance for differential regulation was set to a false discovery rate (FDR) of < 0.05 and |log2FC| = 2.

[5] = test system: ZSCAN22; test: LC-MS/MS proteome profiling; assay type: cell-based, Homo sapiens; details: SK5527 vs DMSO
Protocol: as §2, §3, §4, §5

[6] = test system: JMJD1C; test: LC-MS/MS proteome profiling; assay type: cell-based, Homo sapiens; details: SK5527 vs DMSO (24h)
Protocol: as §2, §3, §4, §5

[7] = test system: ABCA3; test: LC-MS/MS proteome profiling; assay type: cell-based, Homo sapiens; details: SK5527 vs DMSO (24h)
Protocol: as §2, §3, §4, §5

[8] = test system: TROAP; test: LC-MS/MS proteome profiling; assay type: cell-based, Homo sapiens; details: SK5527 vs DMSO
Protocol: as §2, §3, §4, §5

[9] = test system: SRSF10; test: LC-MS/MS proteome profiling; assay type: cell-based, Homo sapiens; details: SK5527 vs DMSO (24h)
Protocol: as §2, §3, §4, §5

[10] = test system: ARHGEF18; test: LC-MS/MS proteome profiling; assay type: cell-based, Homo sapiens; details: SK5527 vs DMSO (24h)
Protocol: as §2, §3, §4, §5

[11] = test system: PLCXD1; test: LC-MS/MS proteome profiling; assay type: cell-based, Homo sapiens; details: SK5527 vs DMSO (24h)
Protocol: as §2, §3, §4, §5

[12] = test system: ZNF337; test: LC-MS/MS proteome profiling; assay type: cell-based, Homo sapiens; details: SK5527 vs DMSO (24h)
Protocol: as §2, §3, §4, §5

[13] = test system: HAND2; test: LC-MS/MS proteome profiling; assay type: cell-based, Homo sapiens; details: SK5527 vs DMSO (24h)
Protocol: as §2, §3, §4, §5

[14] = test system: SMTN; test: LC-MS/MS proteome profiling; assay type: cell-based, Homo sapiens; details: SK5527 vs DMSO (24h)
Protocol: as §2, §3, §4, §5

[15] = test system: RSF1; test: LC-MS/MS proteome profiling; assay type: cell-based, Homo sapiens; details: SK5527 vs DMSO (24h)
Protocol: as §2, §3, §4, §5

Row | SMILES | GI50 [1] [µM] | induction of apoptosis (caspase 3/7) upon cotreatment with tariquidar (in words) [2] | induction of apoptosis (caspase 3/7) upon cotreatment with tariquidar (in words) [3] | logFC SP2 [4] | logFC ZSCAN22 [5] | logFC JMJD1C [6] | logFC ABCA3 [7] | logFC TROAP [8] | logFC SRSF10 [9] | logFC ARHGEF18 [10] | logFC PLCXD1 [11] | logFC ZNF337 [12] | logFC HAND2 [13] | logFC SMTN [14] | logFC RSF1 [15]
1 | Cc1cc(Nc2ccc(F)c(CC3(C(=O)N4CCC(CN5CCN(c6ccc(N7CCC(=O)NC7=O)cn6)CC5)CC4)CCN(Cc4cccc(Cl)c4F)CC3)n2)n[nH]1 [SK4454] | 13.4 | no difference | significant increased induction of apoptosis | – | – | – | – | – | – | – | – | – | – | – | –
2 | Cc1cc(Nc2ccc(F)c(CC3(C(=O)N4CCC(F)(CN5CCN(c6ccc(N7CCC(=O)NC7=O)cn6)CC5)CC4)CCN(Cc4cccc(Cl)c4F)CC3)n2)n[nH]1 [SK5527] | 8.63 | no difference | significant increased induction of apoptosis | -2.23 | -2.09 | 2.49 | -4.59 | 2.33 | 2.01 | -5.19 | -2.06 | 2.22 | -3.26 | 2.05 | 2.45
